Assay results taken from patent publication US10064942B2, “Copper-cysteamine and methods of use” (THE BOARD OF REGENTS, THE UNIVERSITY OF TEXAS SYSTEM, priority 2013, dated 2018).

Experiments:
MCF-7 cells = experiment: MTT cytotoxicity of Cu-Cy crystals in MCF-7 cells; assay type: cell-based, human; conditions: 24 h incubation
Experimental: The toxicity of Cu-Cy crystals in MCF-7 cells was evaluated using an MTT (3-(4,5-dimethylthiazol-2-yl)-2,5-diphenyltetrazoliumbromide) assay. 2 mg of the Cu-Cy crystals were well ground and sonicated before being dissolved in 1 mL of DI water (control) for the measurement.
Cytotoxicity was evaluated using the MTT assay. Approximately 2,000 cells/well MCF-7 cells were seeded into 96-well plates and allowed to grow for 48 hours in an incubator (Sanyo, Japan, 5% CO2, 37° C., humidified atmosphere). On the day of the experiment, after removing the culture medium, different volumes of media containing Cu-Cy particles were added to their respective wells and cytotoxicity was evaluated after 24 h of cell incubation

[1] = test system: human hepatocellular liver cells (HEPT); experiment: UV light (350 nm) destruction of liver cells, calcein/EthD-1 fluorescence imaging; assay type: cell-based
Text: FIGS. 11A-11D depict the comparison of UV light (350 nm) destruction on human hepatocellular liver cells (HEPT) without (top row, FIG. 11A and FIG. 11B) and with (bottom row, FIG. 11C and FIG. 11D) Cu-Cy crystals. […] The scale bar is always 100 μm.
FIGS. 11A-11D depict the effectiveness of the Cu-Cy material as causing cell death when irradiated with UV light or X-ray. For example, in FIGS. 11A-11D, the fluorescence images of human hepatocellular liver cells were taken before and after the UV light exposure (350 nm, for 2 minutes, from an OLYMPUS IX71 microscope). Calcein and Ethidium homodimer 1 (EthD-1) were used as the stains showing cell alive (green) and death (red) respectively.
Each of the images was taken right after the staining without further liver cell incubation.

[2] = test system: human breast cancer (MCF-7) cells; experiment: UV light (350 nm) destruction of MCF-7 cells, fluorescence imaging; assay type: cell-based; conditions: MCF-7 cells exposed to Cu-Cy and irradiated with UV light (350 nm)
Text: FIGS. 12A-12D depict the comparison of UV light (350 nm) destruction on human breast cancer (MCF-7) cells without (top row, FIG. 12A and FIG. 12B) and with (bottom row, FIG. 12C and FIG. 12D) Cu-Cy crystals. […] The scale bar is always 100 μm.
Photo-induced toxicity was then applied to cancer cells.

[3] = test system: human breast cancer (MCF-7) cells; experiment: X-ray destruction of MCF-7 cells, calcein/EthD-1 fluorescence imaging; assay type: cell-based
Text: FIGS. 13A-13D depict the comparison of X-ray (2 Gy) destruction on human breast cancer (MCF-7) cells without (top row, FIG. 14A and FIG. 14B) and with (bottom row, FIG. 14C and FIG. 14D) Cu-Cy crystals. […] The scale bar is always 100 μm.
As stated herein above, the disclosed Cu-Cy compound also absorbs X-rays and emits a luminescent spectrum. FIG. 13A-13D depicts the MCF-7 cell viabilities by fluorescence images with and without Cu-Cy crystals and with and without X-ray irradiation. As with UV radiation, X-ray irradiation of cells incubated with the disclosed Cu-Cy complex is also an effective method for causing cell death.
FIGS. 14A-D depict fluorescence images of MCF-7 cells before and after 1 Gy X-ray exposure by an OLYMPUS IX71 microscope. Calcein and ethidiumhomodimer 1 (EthD-1) were used as the stains showing cells alive (green) and dead (red) respectively. Each of the images was taken immediately after staining, without further cell incubation.
MCF-7 cells were seeded into two 6-well plates (A and B) at 5,000 cells/well and incubated for 48 h at 37° C. in a humidified atmosphere of 5% v/v CO2 at dark. On the day of the experiment, the culture medium was removed and 5 mL medium containing 0 and 40 μg/ml Cu-Cy particles were added to different wells. […] The cells were viewed under an OLYMPUS IX71 fluorescence microscope.

[4] = test system: human prostate cancer (PC3) cells; experiment: X-ray (2 Gy) destruction of PC3 cells, fluorescence imaging; assay type: cell-based; conditions: Cu-Cy crystals plus X-ray 2 Gy
Text: FIGS. 14A-14D depict the comparison of X-ray (2 Gy) destruction on human prostate cancer (PC3) cells without (top row, FIG. 14A and FIG. 14B) and with (bottom row, FIG. 14C and FIG. 14D) Cu-Cy crystals. […] The scale bar is always 100 μm.
As such, the combination of the disclosed Cu-Cy material and a source of radiation provides an effective method for inducing cell death.

MCF-7 tumors = assay type: in vivo, nude mice
Experimental: A suspension of 10×10^6MCF-7 cancer cell lines was injected subcutaneously into flanks on both shoulder and leg area of nude mice. Mice were monitored on a daily basis for the growth of tumors (FIG. 24). […] Saline (10 μL, as control, left shoulder) and Cu-Cy with concentration about 0.8 mg/mL (10 μL-right shoulder, 15 μL-left leg and 20 μL-right leg) were injected intra-tumorally. At one minute post-injection, mice were anesthetized with 2% (v/v) isofluorane, and tumors were irradiated with an X-ray dose of 5 Gy. Without X-ray treatment (top row), the tumors grew as time progressed, and there was no apparent size difference among Cu-Cy dosages of 10, 15, and 20 μl. Meanwhile, the tumors with no Cu-Cy (saline only) treatment were larger than the tumors with Cu-Cy treatment. […] The animals were sacrificed via CO2 inhalation and cervical […] on the day 13 of tumor growth. Absent X-ray radiation (top row), the tumors without Cu-Cy treatment grew to a somewhat larger volume than those treated by Cu-Cy, which indicates the minor toxicity from the Cu-Cy particles themselves. […] This is seen by comparing the two tumors treated with saline with and without X-ray radiation. For the treatment with 20 μL of Cu-Cy particles at 5 Gy dose, the tumor size is reduced to about 3 mm in diameter while the untreated tumor size is about 10 mm in diameter.

Stability in solution = assay type: physicochemical; conditions: aqueous solution and other common solvents

With “Cu3Cl(SR)2 wherein R is —CH2CH2NH2 [Cu-Cy]” the cellular viability (MCF-7 cells; Cu-Cy 0.1 μg/ml) was “about 95%”, the cellular viability (MCF-7 cells; Cu-Cy 200 μg/ml) was “about 70%” and the cell death ([1]; Cu-Cy crystals alone, no UV irradiation) was “does not result in significant cell death”. For the same substance, the cell death ([1]; Cu-Cy crystals plus UV light 350 nm for 2 minutes) was “significant cell death”, the cellular death [2] was “significant cellular death” and the cell destruction ([3]; Cu-Cy coupled with X-ray treatment (1 Gy; 2 Gy elsewhere in the source)) was “significant cell destruction”. The cell death ([3]; Cu-Cy particles alone, no X-ray) was “little cell death”, the cell death [4] was “Significant cell death” and the “tumor size (diameter)” value (MCF-7 tumors; 20 μL Cu-Cy (about 0.8 mg/mL) intra-tumoral, X-ray 5 Gy, day 13) was “about 3 mm”. For the same substance, the “toxicity of Cu-Cy particles themselves in vivo” value (MCF-7 tumors; mouse, in vivo) was “slight toxicity in vivo”, the tumor growth (MCF-7 tumors; with X-ray radiation 5 Gy, 15 and 20 μL Cu-Cy dosages) was “greatly reduced” and the “tumor size or growth” value (MCF-7 tumors; without X-ray, Cu-Cy 10, 15, 20 μL) was “does not significantly reduce tumor size or growth”. The stability (Stability in solution) was “stable in aqueous solution”.
